≈ marks a conversion by molar mass, not a printed value.
Columns and labels:
Salmonella typhimurium [1] = test: Antibacterial activity against Salmonella enterica serovar Typhimurium by broth microdilution method; format: functional, Salmonella enterica subsp. enterica serovar Typhimurium
Escherichia coli [2] = test: Antibacterial activity against Escherichia coli by broth microdilution method; format: functional
Aeromonas veronii [3] = test: Antibacterial activity against Aeromonas veronii by broth microdilution method; format: functional
Campylobacter coli = test: Antibacterial activity against Campylobacter coli by broth microdilution method; format: functional
Campylobacter jejuni [4] = test: Antibacterial activity against Campylobacter jejuni assessed as percent resistant isolates by broth microdilution method; format: functional; conditions: pooled result: one value given for 2 cell lines, strains, targets or settings
Aeromonas sobria [5] = test: Antibacterial activity against Aeromonas sobria by broth microdilution method; format: functional
Plesiomonas shigelloides [6] = test: Antibacterial activity against Plesiomonas shigelloides by broth microdilution method; format: functional
Shigella dysenteriae [7] = test: Antibacterial activity against Shigella dysenteriae assessed as percent susceptible isolates by broth microdilution method; format: functional
Salmonella typhi = test: Antibacterial activity against Salmonella enterica serovar Typhi assessed as percent susceptible isolates by broth microdilution method; format: functional, Salmonella enterica subsp. enterica serovar Typhi
Campylobacter jejuni [8] = test: Antibacterial activity against Campylobacter jejuni assessed as percent susceptible isolates by broth microdilution method; format: functional; conditions: pooled result: one value given for 2 cell lines, strains, targets or settings
Aeromonas veronii [9] = test: Antibacterial activity against Aeromonas veronii assessed as percent susceptible isolates by broth microdilution method; format: functional
Shigella boydii [10] = test: Antibacterial activity against Shigella boydii by broth microdilution method; format: functional
Aeromonas hydrophila [11] = test: Antibacterial activity against Aeromonas hydrophila by broth microdilution method; format: functional
[12] = system: Yersinia pseudotuberculosis; test: Antibacterial activity against Yersinia pseudotuberculosis assessed as percent susceptible isolates by broth microdilution method; format: functional
Aeromonas sobria [13] = test: Antibacterial activity against Aeromonas sobria assessed as percent susceptible isolates by broth microdilution method; format: functional
Aeromonas veronii [14] = test: Antibacterial activity against Aeromonas veronii assessed as percent resistant isolates by broth microdilution method; format: functional
Plesiomonas shigelloides [15] = test: Antibacterial activity against Plesiomonas shigelloides assessed as percent resistant isolates by broth microdilution method; format: functional
Shigella flexneri = test: Antibacterial activity against Shigella flexneri by broth microdilution method; format: functional
Yersinia enterocolitica [16] = test: Antibacterial activity against Yersinia enterocolitica assessed as percent susceptible isolates by broth microdilution method; format: functional
Aeromonas sobria [17] = test: Antibacterial activity against Aeromonas sobria assessed as percent resistant isolates by broth microdilution method; format: functional
Vibrio alginolyticus = test: Antibacterial activity against Vibrio alginolyticus by broth microdilution method; format: functional
[18] = system: Yersinia pseudotuberculosis; test: Antibacterial activity against Yersinia pseudotuberculosis by broth microdilution method; format: functional
Aeromonas hydrophila [19] = test: Antibacterial activity against Aeromonas hydrophila assessed as percent resistant isolates by broth microdilution method; format: functional
Vibrio cholerae = test: Antibacterial activity against Vibrio cholerae by broth microdilution method; format: functional
Shigella sonnei [20] = test: Antibacterial activity against Shigella sonnei assessed as percent resistant isolates by broth microdilution method; format: functional; conditions: pooled result: one value given for 4 cell lines, strains, targets or settings
Vibrio sp. = test: Antibacterial activity against Vibrio sp. by broth microdilution method; format: functional
Escherichia coli [21] = test: Antibacterial activity against Escherichia coli assessed as percent susceptible isolates by broth microdilution method; format: functional
Shigella sonnei [22] = test: Antibacterial activity against Shigella sonnei by broth microdilution method; format: functional
Vibrio vulnificus = test: Antibacterial activity against Vibrio vulnificus by broth microdilution method; format: functional
Yersinia enterocolitica [23] = test: Antibacterial activity against Yersinia enterocolitica assessed as percent resistant isolates by broth microdilution method; format: functional
Vibrio parahaemolyticus = test: Antibacterial activity against Vibrio parahaemolyticus by broth microdilution method; format: functional
Aeromonas hydrophila [24] = test: Antibacterial activity against Aeromonas hydrophila assessed as percent susceptible isolates by broth microdilution method; format: functional
Yersinia enterocolitica [25] = test: Antibacterial activity against Yersinia enterocolitica by broth microdilution method; format: functional
Salmonella enteritidis [26] = test: Antibacterial activity against Salmonella enterica serovar Enteritidis by broth microdilution method; format: functional, Salmonella enterica subsp. enterica serovar Enteritidis
Salmonella paratyphi [27] = test: Antibacterial activity against Salmonella enterica serovar Paratyphi assessed as percent susceptible isolates by broth microdilution method; format: functional, Salmonella enterica subsp. enterica serovar Paratyphi A
Salmonella paratyphi [28] = test: Antibacterial activity against Salmonella enterica serovar Paratyphi by broth microdilution method; format: functional, Salmonella enterica subsp. enterica serovar Paratyphi A
Salmonella typhimurium [29] = test: Antibacterial activity against Salmonella enterica serovar Typhimurium assessed as percent resistant isolates by broth microdilution method; format: functional, Salmonella enterica subsp. enterica serovar Typhimurium; conditions: pooled result: one value given for 8 cell lines, strains, targets or settings
Salmonella enteritidis [30] = test: Antibacterial activity against Salmonella enterica serovar Enteritidis assessed as percent susceptible isolates by broth microdilution method; format: functional, Salmonella enterica subsp. enterica serovar Enteritidis; conditions: pooled result: one value given for 5 cell lines, strains, targets or settings
Vibrio fluvialis = test: Antibacterial activity against Vibrio fluvialis by broth microdilution method; format: functional
Aeromonas caviae [31] = test: Antibacterial activity against Aeromonas caviae by broth microdilution method; format: functional
Plesiomonas shigelloides [32] = test: Antibacterial activity against Plesiomonas shigelloides assessed as percent susceptible isolates by broth microdilution method; format: functional
Aeromonas caviae [33] = test: Antibacterial activity against Aeromonas caviae assessed as percent susceptible isolates by broth microdilution method; format: functional
Escherichia coli [34] = test: Antibacterial activity against Escherichia coli assessed as percent resistant isolates by broth microdilution method; format: functional
Shigella dysenteriae [35] = test: Antibacterial activity against Shigella dysenteriae by broth microdilution method; format: functional
Shigella boydii [36] = test: Antibacterial activity against Shigella boydii assessed as percent susceptible isolates by broth microdilution method; format: functional; conditions: pooled result: one value given for 3 cell lines, strains, targets or settings
Aeromonas caviae [37] = test: Antibacterial activity against Aeromonas caviae assessed as percent resistant isolates by broth microdilution method; format: functional
Campylobacter jejuni [38] = test: Antibacterial activity against Campylobacter jejuni by broth microdilution method; format: functional

With O=C(O)c1cn(C2CC2)c2cc(N3CCNCC3)c(F)cc2c1=O [CIPROFLOXACIN] the MIC50 (Salmonella typhimurium [1]) was 0.008 µg/mL (≈ 0.0241 µM), the MIC90 (Salmonella typhimurium [1]) was 0.12 µg/mL (≈ 0.362 µM) and the MIC50 (Escherichia coli [2]) was 0.008 µg/mL (≈ 0.0241 µM). It also gave an MIC90 (Escherichia coli [2]) of 0.016 µg/mL (≈ 0.0483 µM), an MIC50 (Aeromonas veronii [3]) of 0.004 µg/mL (≈ 0.0121 µM) and an MIC90 (Aeromonas veronii [3]) of 0.06 µg/mL (≈ 0.181 µM). The MIC50 (Campylobacter coli) was 0.06 µg/mL (≈ 0.181 µM), the MIC90 (Campylobacter coli) was > 2 µg/mL and the Activity (Campylobacter jejuni [4]) was 16.5%. The MIC50 (Aeromonas sobria [5]) was 0.004 µg/mL (≈ 0.0121 µM), the MIC90 (Aeromonas sobria [5]) was 0.06 µg/mL (≈ 0.181 µM) and the MIC50 (Plesiomonas shigelloides [6]) was 0.004 µg/mL (≈ 0.0121 µM). It also gave an Activity (Shigella dysenteriae [7]) of 100%, an Activity (Salmonella typhi) of 100% and an Activity (Campylobacter jejuni [8]) of 82.6%. It also gave an Activity (Aeromonas veronii [9]) of 98%, an MIC50 (Shigella boydii [10]) of 0.008 µg/mL (≈ 0.0241 µM) and an MIC90 (Shigella boydii [10]) of 0.016 µg/mL (≈ 0.0483 µM). The MIC50 (Aeromonas hydrophila [11]) was 0.004 µg/mL (≈ 0.0121 µM), the MIC90 (Aeromonas hydrophila [11]) was 0.06 µg/mL (≈ 0.181 µM) and the Activity [12] was 100%. For the same compound, the Activity (Aeromonas sobria [13]) was 98%, the Activity (Aeromonas veronii [14]) was 2% and the Activity (Plesiomonas shigelloides [15]) was 0%. It also gave an MIC50 (Shigella flexneri) of 0.008 µg/mL (≈ 0.0241 µM), an MIC90 (Shigella flexneri) of 0.016 µg/mL (≈ 0.0483 µM) and an Activity (Yersinia enterocolitica [16]) of 100%. For the same compound, the Activity (Aeromonas sobria [17]) was 2%, the MIC50 (Vibrio alginolyticus) was 0.016 µg/mL (≈ 0.0483 µM) and the MIC90 (Vibrio alginolyticus) was 0.06 µg/mL (≈ 0.181 µM). The MIC50 [18] was 0.016 µg/mL (≈ 0.0483 µM), the MIC90 [18] was 0.03 µg/mL (≈ 0.0905 µM) and the Activity (Aeromonas hydrophila [19]) was 2%. For the same compound, the MIC50 (Vibrio cholerae) was 0.016 µg/mL (≈ 0.0483 µM), the MIC90 (Vibrio cholerae) was 0.06 µg/mL (≈ 0.181 µM) and the Activity (Shigella sonnei [20]) was 0%. It also gave an MIC50 (Vibrio sp.) of 0.016 µg/mL (≈ 0.0483 µM), an MIC90 (Vibrio sp.) of 0.06 µg/mL (≈ 0.181 µM) and an Activity (Escherichia coli [21]) of 97%. It also gave an MIC50 (Shigella sonnei [22]) of 0.008 µg/mL (≈ 0.0241 µM), an MIC90 (Shigella sonnei [22]) of 0.016 µg/mL (≈ 0.0483 µM) and an MIC50 (Vibrio vulnificus) of 0.016 µg/mL (≈ 0.0483 µM). It also gave an MIC90 (Vibrio vulnificus) of 0.06 µg/mL (≈ 0.181 µM), an Activity (Yersinia enterocolitica [23]) of 0% and an MIC50 (Vibrio parahaemolyticus) of 0.016 µg/mL (≈ 0.0483 µM). For the same compound, the MIC90 (Vibrio parahaemolyticus) was 0.06 µg/mL (≈ 0.181 µM), the Activity (Aeromonas hydrophila [24]) was 98% and the MIC50 (Yersinia enterocolitica [25]) was 0.016 µg/mL (≈ 0.0483 µM). The MIC90 (Yersinia enterocolitica [25]) was 0.03 µg/mL (≈ 0.0905 µM), the MIC50 (Salmonella enteritidis [26]) was 0.008 µg/mL (≈ 0.0241 µM) and the MIC90 (Salmonella enteritidis [26]) was 0.12 µg/mL (≈ 0.362 µM). The Activity (Salmonella paratyphi [27]) was 100%, the MIC (Salmonella paratyphi [28]) was 0.004 µg/mL (≈ 0.0121 µM) and the Activity (Salmonella typhimurium [29]) was 0%. The Activity (Salmonella enteritidis [30]) was 100%, the MIC50 (Vibrio fluvialis) was 0.016 µg/mL (≈ 0.0483 µM) and the MIC90 (Vibrio fluvialis) was 0.06 µg/mL (≈ 0.181 µM). The MIC50 (Aeromonas caviae [31]) was 0.004 µg/mL (≈ 0.0121 µM), the MIC90 (Aeromonas caviae [31]) was 0.06 µg/mL (≈ 0.181 µM) and the Activity (Plesiomonas shigelloides [32]) was 100%. The Activity (Aeromonas caviae [33]) was 98%, the Activity (Escherichia coli [34]) was 3% and the MIC50 (Shigella dysenteriae [35]) was 0.008 µg/mL (≈ 0.0241 µM). For the same compound, the MIC90 (Shigella dysenteriae [35]) was 0.016 µg/mL (≈ 0.0483 µM), the Activity (Shigella boydii [36]) was 100% and the Activity (Aeromonas caviae [37]) was 2%. The MIC50 (Campylobacter jejuni [38]) was 0.06 µg/mL (≈ 0.181 µM) and the MIC90 (Campylobacter jejuni [38]) was > 2 µg/mL.

From ChEMBL document CHEMBL1629662, “Antimicrobial activity of prulifloxacin tested against a worldwide collection of gastroenteritis-producing pathogens, including those causing traveler's diarrhea” (2009)
